Patent publication US10081632B2, “Substituted tetrahydropyrido[3′,2′:4,5]pyrrolo[1,2-α]pyrazine-2-carboxamides as RSK inhibitors” (Phoenix Molecular Designs, priority 2016, dated 2018)
Marks after values point to notes of the source that are not given here.

Assays:
RSK2 = RSK2 (Homo sapiens (Human), UniProt P51812); test: Radioisotope kinase assay (SignalChem), RSK2; format: biochemical; details: 33P-ATP, 30° C., 15 minutes
Experimental: The assay conditions for the RSK2 kinase target were optimized to yield acceptable enzymatic activity. In addition, the assays were optimized to give high signal-to-noise ratio.
Radioisotope assays (SignalChem) were performed for the evaluation of the kinase target profiling and all assays were performed in a designated radioactive working area. The kinase targets were RSK1, RSK2, RSK3, RSK4 and MK2.
The assay was initiated by the addition of ^33P-ATP and the reaction mixture incubated at 30° C. for 15 minutes. After the incubation period, the assay was terminated by spotting 10 μL of the reaction mixture onto Multiscreen phosphocellulose P81 plate. The Multiscreen phosphocellulose P81 plate was washed 3 times for approximately 15 minutes each in a 1% phosphoric acid solution. The radioactivity on the P81 plate was counted in the presence of scintillation fluid in a Trilux scintillation counter.
Blank controls were set up for each target kinase which included all the assay components except the addition of the appropriate substrate (which was replaced with equal volume of assay dilution buffer). The corrected activity for each target kinase was determined by removing the blank control value.

[1] = tested on: phosphorylated Y-box binding protein-1 (YB-1) at serine 102 (P-YB-1S102); test: Immunoblotting of cell signalling, loss of P-YB-1 in MDA-MB-231 cells
T47D cells = test: Monolayer growth inhibition, Alamar blue assay; format: cell-based, Human; details: T47D (ER/PR), 5 days, single dose on day 1
Text: (§1) In all instances a single dose was given on day 1 of the experiment.

SUM149-PTXR cells = test: Monolayer growth inhibition, Alamar blue assay; format: cell-based, Human; details: SUM149-PTXR (TNBC, BRCA Mutant), 5 days, single dose on day 1
Text: as §1

[2] = Solubility assessment, 20 mg/ml solution; format: physicochemical
Summary of the method: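 Compounds from 100 mM DMSO stocks diluted to 20 mg/ml in DMEM with FBS and penicillin/streptomycin, vortexed and checked visually for precipitate. One compound instead diluted to 20 mg/ml in phosphate-buffered saline, solution pH 2.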

PC3 cells = test: Monolayer growth inhibition, Alamar blue assay; format: cell-based; details: Homo sapiens, PC-3; PC3 (Prostate), 5 days, single dose on day 1
Text: as §1

HCC1937 cells = test: Monolayer growth inhibition, Alamar blue assay; format: cell-based; details: Homo sapiens, HCC1937, HCC1937 (TNBC, BRCA Mutant), 5 days, single dose on day 1
Text: as §1

4T1 cells [3] = test: Monolayer growth inhibition, Alamar blue assay; format: cell-based; details: Mus musculus, 4T1, 4T1 (TNBC), 5 days, single dose on day 1
Text: as §1

JIMT-1 cells = test: Monolayer growth inhibition, Alamar blue assay; format: cell-based; details: Homo sapiens, JIMT-1, JIMT-1 (HER2), 5 days, single dose on day 1
Text: as §1

4T1 cells [4] = test: Monolayer growth inhibition, crystal violet assay; format: cell-based; details: Mus musculus, 4T1, 4T1 (TNBC), 5 days, single dose on day 1
Text: as §1

HCC1143 cells = test: Monolayer growth inhibition, crystal violet assay; format: cell-based; details: Homo sapiens, HCC1143, HCC1143 (TNBC), 5 days, single dose on day 1
Text: as §1

SUM149 cells = test: Monolayer growth inhibition, crystal violet assay; format: cell-based; details: Homo sapiens, SUM149, SUM149 (TNBC, BRCA Mutant), 5 days, single dose on day 1
Text: as §1

CD34+ cells = test: Colony forming unit hematopoietic stem cell assay; format: cell-based, human
MDA-MB-231 cells [5] = test: Soft agar growth inhibition assay; format: cell-based; details: Homo sapiens, MDA-MB-231; growth in soft agar (SA); read-out: MDA-MB-231 IC50 (SA)
MDA-MB-231 cells [6] = test: Combination with paclitaxel, monolayer growth (crystal violet); details: MDA-MB-231, 5 days
Experimental: 1×10^3 cells per well were seeded for a final volume of 200 μl per well and plates were incubated for 5 days at 37° C. in a humidified incubator with 5% CO2. Following the incubation period, cell survival was quantified by Alamar blue assay (Life Technologies). Briefly, media from each well was replaced with 100 μl of phosphate buffer saline (PBS, Life Technologies) and cells were incubated with 5% Alamar blue, which incorporates a propriety redox indicator that changes colour in response to metabolic activity, for up to 2 hours. During this period of incubation, the absorbance at 570 nm and 600 nm was measured at various time points, depending on the cell line or sample. Percent survival was calculated by comparing the absorbance ratio of the test well to the control well multiplied by 100%, as indicated in the following formula:
Following, plates were prepared for crystal violet staining. To begin, 100 μl of an 8% formaldehyde (Alfa Aesar) solution diluted in PBS was added to each well and plates were stored at 4° C. overnight. Next, the formaldehyde solution was discarded and the wells were washed with 200 μl ultrapure water per well three times. Following, 50 μl of a 0.5% crystal violet solution (0.5% w/v crystal violet (Alfa Aesar), 25% methanol (VWR)) was added to each well and incubated at room temperature for 20 minutes. The crystal violet solution was discarded and wells were washed with 200 μl ultrapure water per well three times. Next, 50 μl of a 5% sodium dodecyl sulphate (SDS) (Alfa Aesar) was added to each well and the absorbance at 590 nm was measured.

MDA-MB-468 cells = test: Soft agar growth inhibition assay; format: cell-based, Human; details: MDA-MB-468 (TNBC), 14-22 days

RSK2, sequence (P51812 whole entry): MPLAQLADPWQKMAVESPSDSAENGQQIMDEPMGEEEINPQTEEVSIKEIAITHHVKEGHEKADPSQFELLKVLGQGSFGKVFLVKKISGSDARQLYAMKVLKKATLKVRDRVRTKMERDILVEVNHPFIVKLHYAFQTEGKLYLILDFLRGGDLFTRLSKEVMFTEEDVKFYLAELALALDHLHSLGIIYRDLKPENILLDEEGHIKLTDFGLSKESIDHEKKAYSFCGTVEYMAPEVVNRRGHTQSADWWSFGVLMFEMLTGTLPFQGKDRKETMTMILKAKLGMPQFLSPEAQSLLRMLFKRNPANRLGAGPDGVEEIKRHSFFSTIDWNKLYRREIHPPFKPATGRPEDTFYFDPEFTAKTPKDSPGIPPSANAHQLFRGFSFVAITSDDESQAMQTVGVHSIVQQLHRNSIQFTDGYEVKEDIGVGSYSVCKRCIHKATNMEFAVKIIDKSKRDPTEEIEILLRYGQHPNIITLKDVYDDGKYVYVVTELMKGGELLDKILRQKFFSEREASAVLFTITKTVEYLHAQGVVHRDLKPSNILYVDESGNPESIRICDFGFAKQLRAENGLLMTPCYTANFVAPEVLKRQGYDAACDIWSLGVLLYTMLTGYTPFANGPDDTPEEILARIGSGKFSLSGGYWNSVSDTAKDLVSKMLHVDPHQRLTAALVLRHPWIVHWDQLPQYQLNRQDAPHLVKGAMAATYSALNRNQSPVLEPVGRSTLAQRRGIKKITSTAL

## C[C@@H]1CNC(=O)c2cc3ccc(C(=O)Nc4cnn(Cc5ccc(N)cc5)c4)nc3n21 [Compound 18, (R)—N-(1-(4-aminobenzyl)-1H-pyrazol-4-yl)-9-methyl-6-oxo-6,7,8,9-tetrahydropyrido[3′,2′:4,5]pyrrolo[1,2-a]pyrazine-2-carboxamide]
RSK2
  IC50: 0.02 µM
[1]; MDA-MB-231 cells, 0.01, 0.1, 1, or 10 uM, 24 hrs
  Loss of P-YB-1: dose dependent loss of P-YB-1
[1]; MDA-MB-231 cells, 0.01-1 uM, 96 hrs
  Loss of P-YB-1: dose dependent loss of P-YB-1
T47D cells
  IC50: 3.6 ± 1.7 µM
SUM149-PTXR cells
  IC50: 2.1 ± 0.3 µM
[2]; 100 mM in DMSO diluted in DMEM growth media to 20 mg/ml
  Solubility, 20 mg/ml Solution: Soluble
[2]; DMSO stock diluted in DMEM, pH test strips
  pH of 20 mg/ml solution: 9
PC3 cells
  IC50: 5.5 ± 0.5 µM
HCC1937 cells
  IC50: 9.2 ± 1.1 µM
4T1 cells [3]
  IC50: 5.3 ± 2.5 µM
JIMT-1 cells
  IC50: 13.1 ± 6.4 µM
4T1 cells [4]
  IC50: 5.3 ± 1.1 µM
HCC1143 cells
  IC50: 2.4 ± 0.8 µM
SUM149 cells
  IC50: 2.4 ± 0.7 µM
CD34+ cells; Homo sapiens, Hematopoietic stem cell, CD34+ cells from peripheral blood, read-out: CD34+ (PB) IC50
  IC50: 16.3 µM
CD34+ cells; ratio IC50 against CD34+ cells and MDA-MB-231 cells (SA)
  Therapeutic Window: 163X
MDA-MB-231 cells [5]
  IC50: 0.1 µM
MDA-MB-231 cells [6]; Compound 18 0.2 μM with paclitaxel (0.3 nM)
  Coefficient of Drug Interaction (CDI): 1.6
MDA-MB-231 cells [6]; Compound 18 0.4 μM with paclitaxel (0.3 nM)
  Coefficient of Drug Interaction (CDI): 1.2
MDA-MB-231 cells [6]; Compound 18 0.8 μM with paclitaxel (0.3 nM), considered synergistic
  Coefficient of Drug Interaction (CDI): 0.8*
MDA-MB-231 cells [6]; Compound 18 1.6 μM with paclitaxel (0.3 nM), considered synergistic
  Coefficient of Drug Interaction (CDI): 0.4*
MDA-MB-231 cells [6]; Compound 18 3.1 μM with paclitaxel (0.3 nM), considered synergistic
  Coefficient of Drug Interaction (CDI): 0.2*
MDA-MB-231 cells [6]; Compound 18 […] with paclitaxel (0.3 nM), considered synergistic
  Coefficient of Drug Interaction (CDI): 0.4*
MDA-MB-468 cells
  IC50: 0.3 ± 0.1 µM
